The values below come from US7087424B1, “Method of controlling fungal pathogens, and agents useful for same” (priority 1999, dated 2006).

Where two headings read alike, the source gives them in different places.

In one data set the test system is take-all fungus. In words: agar overlay / PDA plate bioassay against take-all fungus. It counts as cell-based, G. graminis var tritici. Conditions: for inhibition zone against take-all fungus: FIG. 6B, 12.5 mg purified sugar acid, agar overlay bioassay; for zone of inhibition at 7500 µg/disc / zone of inhibition at 12500 µg/disc / zone of inhibition at 25000 µg/disc: Gaeumannomyces graminis, read-out: Clearance zone radii; for zone of inhibition at 7500 µg/disc: amount 7.5 mg; for zone of inhibition at 12500 µg/disc: amount 12.5 mg; for zone of inhibition at 25000 µg/disc: amount 25.0 mg; for bioactivity against take-all: purified acids, PDA plate bioassay, FIG. 6A/6B; for protection against take-all: summary of Table 2. From the text:
A modification of the agar plug assay (Poplawsky et al., 1988) was used to assay for bioactivity of extracts of Pseudomonas strain AN5, or derivative strains thereof, against take-all fungus, wherein an agar overlay assay was used to test activity of specific fractions. This assay involves macerating the take-all fungus grown in Potato Dextrose (PD) broth and seeding it to a Potato Dextrose Agar (PDA) overlay. This PDA overlay was poured onto thick PDA plates. Fractions to be tested for activity were spotted on top of the overlay, and the plates were dried and incubated at 16° C. for 3–5 days.
Active fractions were identified by the appearance of a clearance zone in the plates, within an opaque background of cultured fungus.

Data set [1] is described as follows: media pH with purified acids (Table 2). It counts as physicochemical.
The conditions of data set [2]: cited from earlier work.
For data set [3] the following is noted: cited from earlier work. This is another data set of the same source.
The test system of data set [4] is Botrytis fabae (Chocolate Spot Fungus). In words: in vitro bioassays against B. fabae. The class given is cell-based. The source says:
Accordingly, it is within the scope of the present invention to produce transgenic faba bean plants which produce sugar acids, using the methods described herein, to enhance tolerance of faba beans to B. fabae.

On to `O=C[C@H](O)[C@@H](O)[C@H](O)[C@H](O)C(=O)O` [Glucuronic acid, glucuronic acid], for which, in the data set on take-all fungus, the “inhibition zone against take-all fungus” value is reported as “strong inhibition zones”, the zone of inhibition at 7500 µg/disc came out at 0 mm, the zone of inhibition at 12500 µg/disc is 10 mm and the zone of inhibition at 25000 µg/disc amounted to 20 mm. Further, the bioactivity against take-all entry with take-all fungus is on record as “possessed activity”. The “media pH” value in data set [1] (amount 25.0 mg) came to 1.7.
`CC(=O)O` [Acetic acid, reference compound]: the “media pH” value in data set [1] (amount 4.2 to 8.4 mg) was 2.4.
On to `O=C[C@H](O)[C@@H](O)[C@@H](O)[C@H](O)C(=O)O` [Galacturonic acid, galacturonic acid], for which, in the data set with take-all fungus, the “biological activity against take-all relative to gluconic acid” value is “not as strong as gluconic acid”, the zone of inhibition at 7500 µg/disc amounted to 7 mm, the zone of inhibition at 12500 µg/disc is 20 mm and the zone of inhibition at 25000 µg/disc stood at 25 mm. Further, the “media pH” value in data set [1] (amount 25.0 mg) worked out at 1.7.
Turning to `O=C(O)c1cccc2nc3ccccc3nc12` [PCA, Phenazine-1-carboxylic acid], the solubility entry in data set [2] (in chloroform and methylene chloride) is recorded as “highly soluble”; in data set [2] (in water, methanol and ethyl acetate), “insoluble”.
Turning to `O=C1O[C@H]([C@@H](O)CO)C(O)=C1O` [Ascorbic acid, ascorbic acid], in the data set on take-all fungus, the “inhibition zone against take-all fungus” value was “strong inhibition zones”, the zone of inhibition at 7500 µg/disc is 0 mm, the zone of inhibition at 12500 µg/disc is 9 mm and the zone of inhibition at 25000 µg/disc came out at 20 mm. For the same molecule, in the data set on take-all fungus, the bioactivity against take-all entry was “possessed activity”. The “media pH” value in data set [1] (amount 25.0 mg) amounted to 1.9.
Regarding `O=C([O-])[C@H](O)[C@@H](O)[C@H](O)[C@H](O)CO.[Na+]` [Sodium gluconate, reference compound], in the data set with take-all fungus, the zone of inhibition at 7500 µg/disc was 0 mm, the zone of inhibition at 12500 µg/disc was determined as 0 mm, the zone of inhibition at 25000 µg/disc is 0 mm and the protection against take-all entry is recorded as “did not confer significant protection”. The “media pH” value in data set [1] (amount 25.0 mg) is recorded as “about 7.0”.
For orientation: pKa means the negative logarithm of the acid dissociation constant. Take `O=C(O)CCCC(=O)O` [Glutaric acid, glutaric acid]: in the data set on take-all fungus, the “inhibition zone against take-all fungus” value is given as “strong inhibition zones”, the zone of inhibition at 7500 µg/disc worked out at 15 mm, the zone of inhibition at 12500 µg/disc was 20 mm and the zone of inhibition at 25000 µg/disc was determined as 25 mm. Moreover, in the data set with take-all fungus, the bioactivity against take-all result is reported as “possessed activity”. Further, the pKa in data set [3] is 4.31. In data set [1] (amount 25.0 mg), the “media pH” value stood at 2.0.
With `O=C(O)[C@H](O)[C@@H](O)[C@H](O)[C@H](O)CO` [Gluconic acid, gluconic acid], in data set [4], the “suppression of growth of B. fabae” value is on record as “suppress the growth and/or reproduction”. Also, the “relation of amount used to size of inhibition zone” value in the data set with take-all fungus (FIG. 6A, 25, 15, 12.5, 7.5 mg pure gluconic acid) is “positive correlation”. For the same molecule, in the data set with take-all fungus, the zone of inhibition at 7500 µg/disc is 7 mm, the zone of inhibition at 12500 µg/disc was found to be 10 mm, the zone of inhibition at 25000 µg/disc came to 20 mm and the bioactivity against take-all result is “strong biologically activity”. In addition, the protection against take-all entry in the data set with take-all fungus is listed as “confers protection”. Moreover, the “media pH” value in data set [1] (amount 25.0 mg) is “about 5.0”.
For the molecule `O=C(O)CC(O)C(=O)O` (stereo not shown) [Malic acid, malic acid], in the data set with take-all fungus, the “inhibition zone against take-all fungus” value is given as “strong inhibition zones”, the zone of inhibition at 7500 µg/disc stood at 10 mm, the zone of inhibition at 12500 µg/disc was determined as 20 mm and the zone of inhibition at 25000 µg/disc stood at 25 mm. Further, the bioactivity against take-all result with take-all fungus is recorded as “possessed activity”. In data set [1] (amount 25.0 mg), the “media pH” value was found to be 1.5.
